Reference: ChEMBL document CHEMBL4145563, “Poecillastrin H, a Chondropsin-Type Macrolide with a Conjugated Pentaene Moiety, from a Characella sp. Marine Sponge” (J Nat Prod, 2018)
Calls of active or inactive are those of the source. The calls are words filed in the database; no cut-off is given here.

Columns and labels:
3Y1 cell line [1] = test: Induction of morphological changes in rat 3Y1 cells assessed as elongation of cells; assay type: functional, cell-based
3Y1 cell line [2] = test: Cytotoxicity against rat 3Y1 cells after 72 hrs by MTT assay; assay type: functional, cell-based; details: 3Y1, 72 h

Structure (SMILES) | Activity (3Y1 cell line [1]) | IC50 (3Y1 cell line [2]) [nM]
CO/C1=C\C(C)=C\[C@@H](C)[C@@H](O)[C@@H](C)C/C(C)=C/C=C/[C@H](OC)[C@@H]([C@@H](C)[C@@H](O)[C@H](C)[C@@]2(O)C[C@@H](O)[C@H](C)[C@@H](C(C)C)O2)OC1=O | Active | –
C/C1=C\CC(O)C(C)C(C(NC(=O)C(C)C(O)CCC(C)C(O)/C(C)=C/C(C)(C)C(O)C(CC(C)C)NC(=O)/C=C/C(C)(C)C(=O)C(C)C(O)C(C)C)C(C)O)OC(=O)[C@H](O)[C@H](C(=O)O)NC(=O)/C=C/C=C/C=C/C=C/C=C/CC2CC(C)CC(CC(O)C(C)C(O)/C(C)=C/C(C)C1O)O2 (stereo partly drawn) | Active | 4.1
